Several values for one entry are separate records, joined by “and”; a condition that tells them apart may be missing. Equal entries are not always repeated. Blank lines part the entries; values can stand above or below the molecule they belong to. Peptide text beside a SMILES is read from it.
Assays:
human CXCR4 [1] = target: T1, human CXCR4 (Homo sapiens, UniProt P61073); experiment: Competitive receptor binding assay on Jurkat cells with 125I-CPCR4 as tracer; set-up: Jurkat cells that endogenously express the CXCR4 receptor; endogenous in cells; host or cells: Jurkat cells; conditions: Table 4, Orn-Nδ and/or Orn-Nα-modified pentapeptides; read-out: IC50
T1 sequence (P61073 whole entry): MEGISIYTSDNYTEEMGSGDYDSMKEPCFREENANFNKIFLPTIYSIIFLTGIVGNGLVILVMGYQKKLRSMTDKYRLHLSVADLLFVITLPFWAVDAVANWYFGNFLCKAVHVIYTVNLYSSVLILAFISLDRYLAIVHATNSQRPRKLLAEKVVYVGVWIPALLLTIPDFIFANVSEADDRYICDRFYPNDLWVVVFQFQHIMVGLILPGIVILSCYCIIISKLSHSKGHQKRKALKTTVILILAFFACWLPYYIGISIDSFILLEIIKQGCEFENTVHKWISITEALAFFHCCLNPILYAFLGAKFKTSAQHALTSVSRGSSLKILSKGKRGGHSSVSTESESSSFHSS
Method: For receptor binding assays cells were resuspended in PBS/0.2% BSA. A total of 200 μl of the suspension containing 400,000 Jurkat cells were incubated with 25 μl of the tracer solution (containing 3.1 kBq, approx. 0.1 nM) and 25 μl of the diluent or the competitor at different concentrations. […] After shaking for 2 h at room temperature, the incubation was terminated by centrifugation at 1300 rpm for 5 min. Cell pellets were washed once with cold PBS followed by a second centrifugation step. Cell bound radioactivity was determined by using a gamma counter. Experiments were repeated 2-3 times in triplicates. IC50 values of the compounds were calculated by nonlinear regression using GraphPad Prism (GraphPad Prism 4.0 Software, Inc., San Diego, Calif., USA). Each data point is the average of three determinations.

human CXCR4 [2] = target: T1, human CXCR4; experiment: Receptor functionality: FACS staining of surface CXCR4 after pre-incubation with SDF-1α; format: cell-based; set-up: expressed in transfected cells; host or cells: murine CMS5 fibrosarcoma cells, retroviral vector pBulletCXCR4-IRES-eGFP
From the text: CXCR-4 staining was plotted against EGFP fluorescence (FL1).

CMS5/CXCR4 tumours = experiment: Biodistribution of 125I-CPCR4 in CMS5 and CMS5/CXCR4 tumour bearing nude mice; format: in vivo; conditions: for accumulation in CMS5/CXCR4 tumours / accumulation in parental CMS5 (CXCR4 negative control) tumours: i.v.
Method: For animal experiments parental CMS5 cells and transduced CMS5/CXCR4 cells were injected subcutaneously in female Swiss nu/nu mice (Charles River, France). Therefore for each mouse 1.5×10^6 CMS5 cells and 2×10^6 CMS5/CXCR4 cells were resuspended in 75 μl PBS, respectively and mixed with the same volume Matrigel-Matrix HC (BD Biosciences, Heidelberg, Germany) according to the manufacturer's protocol. Subsequently cell suspension was inoculated at each shoulder, respectively. After 14-16 days of tumour growth mice were used for imaging and biodistribution purposes. All animal experiments were approved by the local authorities and are in compliance with the institutions guidelines.
The animals were sacrificed and dissected 30, 60 and 120 min after tracer injection. Organs of interest were removed and the radioactivity was measured in weighted tissue samples using the 1480 Wizard3 gamma counter from Wallac (Turku, Finland). Results are expressed as percent injected dose per gram tissue weight (% ID/g). Each value represents the mean of four to six animals.

human CXCR4 [3] = target: T1, human CXCR4; experiment: Radioligand (saturation) binding of 125I-CPCR4 on Jurkat and CMS5/CXCR4 cells; set-up: Jurkat cells that endogenously express the CXCR4 receptor; endogenous in cells; host or cells: Jurkat cells
Method: For receptor binding assays cells were resuspended in PBS/0.2% BSA. A total of 200 μl of the suspension containing 400,000 Jurkat cells were incubated with 25 μl of the tracer solution (containing 3.1 kBq, approx. 0.1 nM) and 25 μl of the diluent or the competitor at different concentrations. […] Nonspecific binding was determined in the presence of 1 μM cold cyclo(D-Tyr^1[^127I]-Arg^2-Arg^3-Nal^4-Gly^5). After shaking for 2 h at room temperature, the incubation was terminated by centrifugation at 1300 rpm for 5 min. Cell pellets were washed once with cold PBS followed by a second centrifugation step. Cell bound radioactivity was determined by using a gamma counter. Experiments were repeated 2-3 times in triplicates. IC50 values of the compounds were calculated by nonlinear regression using GraphPad Prism (GraphPad Prism 4.0 Software, Inc., San Diego, Calif., USA). Each data point is the average of three determinations.
Whereas for Jurkat cells the Bmax value was more dependent on origin and varies stronger with culture conditions, the number of binding sites (Bmax) on CMS5/CXCR4 cells was constant and better reproducible (23±6 fmol receptor protein).

human CXCR4 [4] = target: T1, human CXCR4; experiment: Receptor internalization: tracer release after acidic buffer wash; format: cell-based; set-up: Jurkat cells that endogenously express the CXCR4 receptor; endogenous in cells; host or cells: Jurkat cells; conditions: after two short washing steps with acidic buffer (pH5.0)
From the text: Thereafter the tracer was mostly releasable from the receptor (>80%).

[5] = 60 min (1 h) post injection, listed as radiolabeled CPCR4

Molecule: N=C(N)NCCC[C@@H]1NC(=O)[C@H](CCCNCc2ccc3ccccc3c2)NC(=O)[C@@H](Cc2ccc(O)cc2)NC(=O)CNC(=O)[C@H](Cc2ccc3ccccc3c2)NC1=O [cyc[D-Tyr-Orn(N2)-Arg-Nal-Gly]] (HELM PEPTIDE1{[dY].[O=C([C@H](CCCNCc1ccc2ccccc2c1)N[*:1])[*:2]].R.[O=C([C@H](Cc1ccc2ccccc2c1)N[*:1])[*:2]].G}$PEPTIDE1,PEPTIDE1,1:R1-5:R2$$$V2.0)
IC50 (human CXCR4 [1]): 49 ± 1 nM

mean fluorescence intensity, CMS5/CXCR4 cells (human CXCR4 [2]; SDF-1α treated, mock treated 209.0): 80.5 | CMS5/CXCR4 cells stained positive for CXCR4 (human CXCR4 [2]; after pre-incubation with human SDF-1α 100 nM, 1 hr 37° C., control-treated […]): 54.7%
Molecule: SDF-1α

Molecule: cyclo(D-Tyr^1[^125I]-Arg^2-Arg^3-Nal^4-Gly^5) [^125I-CPCR4]
accumulation in intestine (CMS5/CXCR4 tumours; 30 min post injection): 16.0 (±4.7) % ID/g | accumulation in liver (CMS5/CXCR4 tumours; 30 min post injection): 27.7 (±4.9) % ID/g | accumulation in CMS5/CXCR4 tumours (CMS5/CXCR4 tumours; 30 min post injection): 4.7 (±1.3) % ID/g | accumulation in kidneys (CMS5/CXCR4 tumours; 60 min (1 h) post injection): 12.2 (±2.3) % ID/g | accumulation in CMS5/CXCR4 tumours (CMS5/CXCR4 tumours; 60 min (1 h) post injection): 5.5 (±1.5) % ID/g and 5.5 % ID/g | accumulation in parental CMS5 (CXCR4 negative control) tumours (CMS5/CXCR4 tumours; 60 min (1 h) post injection): 0.6 (±0.2) % ID/g | accumulation in CMS5/CXCR4 tumours (CMS5/CXCR4 tumours; [5]): 5.5±1.5 % ID/g | accumulation in parental CMS5 (CXCR4 negative control) tumours (CMS5/CXCR4 tumours; [5]): 0.6±0.2 % ID/g | accumulation in kidneys (CMS5/CXCR4 tumours; [5]): 12.2±2.3 % ID/g | tracer uptake in intestine (CMS5/CXCR4 tumours; 1 h post injection): 17.2±2.9 % ID/g | tracer uptake in liver (CMS5/CXCR4 tumours; 1 h post injection): 19.5±2.8 % ID/g | background accumulation (CMS5/CXCR4 tumours; 1 h post injection, other organs): < 1.0 % ID/g | accumulation in intestine (CMS5/CXCR4 tumours; 120 min post injection): 19.2 (±4.5) % ID/g | accumulation in kidneys (CMS5/CXCR4 tumours; 120 min post injection): 8.2 (±1.1) % ID/g | accumulation in liver (CMS5/CXCR4 tumours; 120 min post injection): 15.0 (±1.8) % ID/g | accumulation in CMS5/CXCR4 tumours (CMS5/CXCR4 tumours; 120 min post injection): 3.8 (±1.4) % ID/g | increased accumulation in CXCR4+ tumors compared to control tumors (CMS5/CXCR4 tumours; preliminary animal studies): around 10 times | specific binding (human CXCR4 [3]): > 90% | tracer releasable from the receptor (human CXCR4 [4]): > 80%

From patent publication US8614290B2, “Cancer imaging and treatment” (Technische Universitat Munchen, priority 2007, dated 2013)
